Results on six compounds are retold here after patent US9879050B2, “Substituted urea depsipeptide analogs as activators of the CLPP endopeptidase” (priority 2013, dated 2018).

Series [1] addresses T1, Sa-ClpP (Staphylococcus aureus, UniProt Q2G036).
T1 construct: made in house; host or cells: E. coli BL21 (DE3)
Nature of the series: ClpP activation, EnzCheck Protease Assay with Bodipy-FL casein (second described method). Type of series: biochemical, S. aureus. How it is done: Alternatively, the assay was carried out using EnzCheck Protease Assay (Molecular Probes, Catalog #E6638). The assay was performed in black 384 well, flat bottom, low volume plates (Greiner Bio-One, Monroe, N.C., catalog #784076). 10 μL of Tris.HCl buffer, pH 8.0 with 0.01% Triton X-100 was pipetted into each well using a Well-Mate (Thermo Scientific, Waltham, Mass.). 0.4 μL test compounds or controls (2% DMSO v/v) were added to each well using a Biomek FX liquid handling robot (Beckman Coulter, Indianapolis Ind.). After addition of test compounds and controls, 10 μL of master mix containing 2 μM Sa-ClpP and 2 μM substrate (Bodipy-FL labeled casein) in Tris*HCl buffer, pH 8.0 with 0.01% (v/v) Triton X-100, was pipetted into each well. All assays were performed in triplicate, under linear velocity conditions. Increase in fluorescent signal following activation of Sa-ClpP by test compounds and controls was measured over time period of 30 mins using filters with excitation at 485±15 nm and emission at 520±25 nm on a PHERAstar FS Multilabel reader (BMG, Cary, N.C.). […] Data analysis was done by measuring rate of casein degradation over time (slopes). Computed degradation rates (slopes) were normalized to positive (ADEP4) or negative (DMSO) controls. Using nonlinear regression curve fitting EC50 values and % activation were determined using the equation “log [agonist]vs. Response-variable slope (four parameters)-symmetrical” in the program Prism 6 (GraphPad Software, La Jolla, Calif. USA, www.graphpad.com).

Series [2] deals with T1, Sa-ClpP. Nature of the series: ADEP displacement fluorescence polarization assay. It counts as binding, S. aureus. As to the method: A fluorescence polarization (FP) assay was used to determine the activity of the disclosed compounds in displacing an ADEP analogue from ClpP. Briefly, the assay was performed in black 384 well, flat bottom, low volume plates (Greiner Bio-One, Monroe, N.C., catalog #784076). 20 μL of a pre-equilibrated (1 hr, room temperature) master mix (1 μM Sa-ClpP, 2% DMSO (v/v) and 50 nM FP probe in Tris*HCl, pH 8.0)) was pipetted into each well using a Well-Mate (Thermo Scientific, Waltham, Mass.). Sa-ClpP was prepared as described above for the ClpP activation assay. The FP probe was ADEP 2591 (structure shown above). The ADEP 2591 comprises a TAMRA fluorophore linked to a core based on modified ADEP 2378 via a short alkyl linker. Using pin transfer, approximately 0.4 μL (2% v/v DMSO) of each compound or control was added per well. After addition of compounds and controls, plates were allowed to incubate for an additional 120 minutes at room temperature. All assays were performed in triplicate. Polarization was monitored using an EnVision Multilabel reader (Perkin-Elmer, Waltham, Mass.) by exciting the FP probe at 530±25 nm, and monitoring fluorescence intensity of both parallel and perpendicular polarized light at 579±25 nm. Readout was in millipolarization units (mP).
Signal gain and G factors were determined in wells containing 20 μM ADEP 2378, which had been previously verified (data not shown) as containing completely unbound ADEP 2591. Data collected was normalized to values obtained from positive (20 μM ADEP 2378) or negative (DMSO) controls. Curves were fit with non-linear regression using the equation “log [inhibitor]vs. Response-variable slope (four parameters)-symmetrical” in the program Prism 6 (GraphPad Software, La Jolla, Calif. USA, www.graphpad.com). The structures for ADEP 2378 and ADEP 2591 are shown above. ADEP 2378 is (E)-N-((S)-1-(((2R,6S,8aS,14aS,20S,23aS)-2,6-dimethyl-5,8,14,19,23-pentaoxooctadecahydro-1H,5H,14H,19H-pyrido[2,1-i]dipyrrolo[2,1-c:2′,1′-1][1]oxa[4,7,10,13]tetraazacyclohexadecin-20-yl)amino)-1-oxo-3-phenylpropan-2-yl)pent-2-enamide. ADEP 2591 is 5-(3-(3-((6S,9S,11aS,17S,20aS)-6,10-dimethyl-5,8,11,16,20-pentaoxo-17-((S)-2-((E)-pent-2-enamido)-3-phenylpropanamido)hexadecahydro-1H,5H,16H-dipyrrolo[2,1-c:2′,1′-1][1]oxa[4,7,10,13]tetraazacyclohexadecin-9-yl)propyl)thioureido)-2-(6-(dimethylamino)-3-(dimethyliminio)-3H-xanthen-9-yl)benzoate.
Background: Polarisation of emitted light reports the rotation of a fluorescent probe.

Series [3] can be described thus: Cytotoxicity assay, CellTiter-Glo cell viability. It counts as cell-based. The following applies: African green monkey. As to the method: Cytotoxicity was determined by determining the effect of compounds on cell viability. Vero (kidney epithelial cells; ATCC CCL-81) monolayers were trypsinized and 5000 cells/well were seeded (10-15% confluency) into white-wall, flat bottom 96 well microwell plates (Corning) using enriched Dulbecco's Modified Eagle's Medium (Hyclone: DMEM/High Glucose) containing 10% Fetal Bovine Serum (ATCC-30-2020). Plates were incubated overnight at 37° C. in the presence of 5% CO2. Drug-free media was then replaced with media containing serial dilutions of test compound or DMSO carrier. After an additional 72 hours of incubation, viability was indirectly measured using the CellTiter-Glo® Luminescent Cell Viability (Promega) assay. Assay plates were read at peak emission wavelength of 560 nm using a EnVision® Multilabel Plate Reader (Perkin Elmer) or PHERAstar FS Multilabel reader (BMG, Cary, N.C.). […] USA, www.graphpad.com]. For each experiment, compounds were tested in duplicate. IC50 values presented are the range of two biologically independent experiments.
In general terms: ATP-based viability assays read luminescence as a measure of living cells.

Series [4] has as its system S. aureus USA 300 ΔClpP. Nature of the series: Minimal inhibitory concentration, microbroth dilution. It counts as cell-based, Staphylococcus aureus. The following applies: ClpP inactivated strain. As to the method:
Minimal inhibitory concentrations (“MICs”) were determined using the microbroth dilution method according to Clinical Laboratory Standards Institute (CLSI; National, C.F. C. L. S., Methods for Dilution Antimicrobial Susceptibility Tests for Bacteria Grow aerobically-Seventh Edition: Approved Standard M7-A7, CLSI, Wayne, Pa., USA, 2008) and were read by visual inspection. Two fold serial dilutions of test compound in 100 μL of the appropriate broth media were first prepared in 96-well round bottom microtiter plates (Nalgene Nunc International, Rochester, N.Y., USA). An equivalent volume (100 μL) of bacterial broth inocula containing approximately 10^5 bacterial cfu/mL was added to each well to give final concentrations of test compound starting at 200 μM. The plates were then incubated aerobically at 37° C. All strains were incubated overnight. After incubations, in all cases the MIC was recorded as the lowest concentration of drug that prevented bacterial growth. The bacterial strains for which MIC was determined as described in Table 4.
A general note: Broth dilution looks for growth in wells or tubes with falling amounts of substance.

The subject of series [5] is S. pneumoniae R6. The description is as above. Type of series: cell-based. As to the method:
Minimal inhibitory concentrations (“MICs”) were determined using the microbroth dilution method according to Clinical Laboratory Standards Institute (CLSI; National, C.F. C. L. S., Methods for Dilution Antimicrobial Susceptibility Tests for Bacteria Grow aerobically-Seventh Edition: Approved Standard M7-A7, CLSI, Wayne, Pa., USA, 2008) and were read by visual inspection. Two fold serial dilutions of test compound in 100 μL of the appropriate broth media were first prepared in 96-well round bottom microtiter plates (Nalgene Nunc International, Rochester, N.Y., USA). […] The plates were then incubated aerobically at 37° C. All strains were incubated overnight. After incubations, in all cases the MIC was recorded as the lowest concentration of drug that prevented bacterial growth. The bacterial strains for which MIC was determined as described in Table 4.

[6] abbreviates: Streptococcus pneumoniae, R6; read-out: Minimal Inhibitory Concentration S. pneumoniae R6.

Values after ≈ are worked out from the molar mass of the structure shown. Where two headings read alike, the source gives them in different places.

One may read the EC50 as the midpoint of the concentration-response curve. Usually IC50 stands for the concentration at which inhibition is half-maximal.

T1 sequence (Q2G036 whole entry): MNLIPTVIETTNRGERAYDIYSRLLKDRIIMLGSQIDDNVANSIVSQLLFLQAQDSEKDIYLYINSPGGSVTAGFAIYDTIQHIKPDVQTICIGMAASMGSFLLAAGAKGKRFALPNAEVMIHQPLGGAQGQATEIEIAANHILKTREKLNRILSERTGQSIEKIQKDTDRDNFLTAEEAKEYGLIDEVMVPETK

`C[C@H]1CC2C(=O)O[C@@H](C)[C@H](NC(=O)[C@H](Cc3cc(F)cc(F)c3)NC(=O)Nc3ccc(OC(F)(F)F)cc3)C(=O)N3C[C@H](O)CC3C(=O)N(C)[C@@H](C)C(=O)N[C@@H](C)C(=O)N2C1` (stereo partly drawn) [Compound 32, (S)-3-(3,5-Difluorophenyl)-N-((2S,6S,9S,11aS,13R,17S,18S,20aS)-13-Hydroxy-2,6,9,10,18-Pentamethyl-5,8,11,16,20-Pentaoxohexadecahydro-1H,5H,16H-Dipyrrolo[2,1-C:2′,1′-L][1]Oxa[4,7,10,13]Tetraazacyclohexadecin-17-Yl)-2-(3-(4-(Trifluoromethoxy)Phenyl)Ureido)Propanamide] came in with an EC50 in series [1] of 0.4 ± 0.01 µM. This compound registered a half-inhibitory concentration (IC50) in series [2] of 7 ± 0.4 µM. In series [3], this compound showed an IC50 at 72 h of 28.3 ± 0.6 µM. The “Minimal Inhibitory Concentration S. aureus USA 300 ΔClpP” value in series [4] stood at 100 µM. Moreover, the MIC in series [5] (setting [6]) was determined as 0.049 µM (≈ 0.0425 µg/mL).
`CN[C@@H]1[C@H](O)[C@H](NC)[C@H]2O[C@@]3(O)C(=O)C[C@@H](C)O[C@H]3O[C@@H]2[C@H]1O` [Spectinomycin, spectinomycin, reference compound]: in series [4], the “Minimal Inhibitory Concentration S. aureus USA 300 ΔClpP” value worked out at 25 µM. In addition, the MIC in series [5] (Streptococcus pneumoniae, R6, read-out: Minimal Inhibitory Concentration S. pneumoniae R6) was found to be 6.3 µM (≈ 2.09 µg/mL).
In the case of `C[C@@H]1NC(=O)[C@H](C)N(C)C(=O)C2CCCN2C(=O)[C@@H](NC(=O)[C@H](Cc2cc(F)cc(F)c2)NC(=O)Nc2ccc(OC(F)(F)F)cc2)[C@H](C)OC(=O)C2CCCN2C1=O` (stereo partly drawn) [Compound 27, (2S)-3-(3,5-Difluorophenyl)-N-((6S,9S,11aS,17S,18S)-6,9,10,18-Tetramethyl-5,8,11,16,20-Pentaoxohexadecahydro-1H,5H,16H-Dipyrrolo[2,1-C:2′,1′-L][1]Oxa[4,7,10,13]Tetraazacyclohexadecin-17-Yl)-2-(3-(4-(Trifluoromethoxy)Phenyl)Ureido)Propanamide], in series [1] (read-out: ClpP Activation EC50 (converted)), the 50% effective concentration (EC50) was 0.31 ± 0.01 µM. Further, in series [2] (1 μM Sa-ClpP, 50 nM FP probe ADEP 2591, read-out: ADEP Displacement IC50), the half-inhibitory concentration (IC50) was found to be 7.7 ± 0.2 µM. The compound further came in with an IC50 at 72 h in series [3] of 10.5 ± 1.4 µM. In series [4], the “Minimal Inhibitory Concentration S. aureus USA 300 ΔClpP” value came out at 100 µM. Besides, the MIC in series [5] (setting [6]) came to 0.058 µM (≈ 0.0486 µg/mL).
Take `C[C@H]1CC2C(=O)OC[C@H](NC(=O)[C@H](Cc3cc(F)cc(F)c3)NC(=O)Nc3ccc4c(c3)OCO4)C(=O)N3CCCC3C(=O)N3CCCCC3C(=O)N[C@@H](C)C(=O)N2C1` (stereo partly drawn) [Compound 46, (S)-2-(3-(Benzo[D][1,3]Dioxol-5-Yl)Ureido)-3-(3,5-Difluorophenyl)-N-((2S,6S,8aS,14aS,20S,23aS)-2,6-Dimethyl-5,8,14,19,23-Pentaoxooctadecahydro-1H,5H,14H,19H-Pyrido[2,1-I]Dipyrrolo[2,1-C:2′,1′-L][1]Oxa[4,7,10,13]Tetraazacyclohexadecin-20-Yl)Propanamide]: in series [1], the concentration giving a half-maximal response (EC50) is 0.32 ± 0.02 µM. For the same compound, in series [2], the IC50 is 4.61 ± 0.2 µM. For the same compound, the IC50 at 72 h in series [3] (Vero kidney epithelial cells (ATCC CCL-81), Vero cells, 72 hours, read-out: Cytotoxicity IC50) stood at 71.8 ± 5.4 µM. The “Minimal Inhibitory Concentration S. aureus USA 300 ΔClpP” value in series [4] came out at 200 µM. The MIC in series [5] (setting [6]) turned out to be 0.4 µM (≈ 0.33 µg/mL).
In series [1], `CCc1ccc(NC(=O)N[C@@H](Cc2cc(F)cc(F)c2)C(=O)N[C@@H]2C(=O)N3CCCC3C(=O)N(C)[C@@H](C)C(=O)N[C@@H](C)C(=O)N3C[C@@H](C)CC3C(=O)O[C@H]2C)cc1` (stereo partly drawn) [Compound 30, (S)-3-(3,5-Difluorophenyl)-2-(3-(4-Ethylphenyl)Ureido)-N-((2S,6S,9S,11aS,17S,18S,20aS)-2,6,9,10,18-Pentamethyl-5,8,11,16,20-Pentaoxohexadecahydro-1H,5H,16H-Dipyrrolo[2,1-C:2′,1′-L][1]Oxa[4,7,10,13]Tetraazacyclohexadecin-17-Yl)Propanamide] came in with an EC50 of 0.43 ± 0.02 µM. In series [2], this compound yielded an IC50 of 4 ± 0.1 µM. In series [3], this compound registered a half-inhibitory concentration (IC50) at 72 h of 28.8 ± 3.7 µM. In addition, in series [4], the “Minimal Inhibitory Concentration S. aureus USA 300 ΔClpP” value came to 50 µM. Besides, in series [5] (setting [6]), the MIC is 0.008 µM (≈ 0.00637 µg/mL).
Compound `C[C@H]1CC2C(=O)O[C@@H](C)[C@H](NC(=O)[C@H](Cc3cc(F)cc(F)c3)NC(=O)Nc3ccc(OC(F)(F)F)cc3)C(=O)N3CCCC3C(=O)N(C)[C@@H](C)C(=O)N[C@@H](C)C(=O)N2C1` (stereo partly drawn) [Compound 28, (2S)-3-(3,5-Difluorophenyl)-N-((2S,6S,9S,11aS,17S,18S)-2,6,9,10,18-Pentamethyl-5,8,11,16,20-Pentaoxohexadecahydro-1H,5H,16H-Dipyrrolo[2,1-C:2′,1′-L][1]Oxa 1[4,7,10,13]Tetraazacyclohexadecin-17-Yl)-2-(3-(4-(Trifluoromethoxy)Phenyl)Ureido)Propanamide] had a 50% effective concentration (EC50) in series [1] of 0.19 ± 0.01 µM. The 50% inhibitory concentration (IC50) in series [2] was 5.6 ± 0.2 µM. This compound also came in with a half-maximal inhibitory concentration (IC50) at 72 h in series [3] of 16.1 ± 2.4 µM. In addition, the MIC in series [5] (setting [6]) was determined as 0.029 µM (≈ 0.0247 µg/mL).
